Values quoted from earlier work, collected in PMC8364112 (Proceedings of the National Academy of Sciences of the …, 2021).

System: PTH2R
Conditions: for mode of action on PTH2R: potent / mild / weak, ref [4], [16]

For PTH-related peptide [PTHrP], the “mode of action on PTH2R” value [13] is given as “weak” and the “action on PTH2R” value (ref [3], [4], [13]) is given as “weak action on PTH2R”.

In the case of “parathyroid hormone (SVSEIQLMHNLGKHLNSMERVEWLRKKLQDVHNF; Parathyroid hormone; UniProt P01270 32-65, looked up, fragment) [PTH]”, the “mode of action on PTH2R” value [13] is given as “mild”.

B1: substitution of Ile5^P of PTH with a histidine: PTH with Ile5 substituted with a histidine (peptide, UniProt P01270 32-115, looked up, variant I5H)
Parathyroid hormone: SVSEHQLMHNLGKHLNSMERVEWLRKKLQDVHNFVALGAPLAPRDAGSQRPRKKEDNVLVESHEKSLGEADKADVNVLTKAKSQ
modifications: Parathyroid hormone
In the case of B1, the “effect of position 5 substitution on potency on PTH2R” value (ref [27]) is listed as “decreases the peptide potency”.
